Data as given in ChEMBL document CHEMBL1201862, “PubChem BioAssay data set” (2004).
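Each compound was tested at five concentrations against cells in 96-well plates for 48 hours. GI50 = concentration required for 50% inhibition of growth.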 Calls of active or inactive are those of the source. Rule as the data show it: active = GI50 up to about 1.1 µM and inactive = higher.

Tests used:
Experiment in all cases: DTP human tumour cell line panel, 48 h
[1] = test system: OVCAR-3
[2] = test system: UACC-257
[3] = test system: HCT-15
[4] = test system: NCI-H226
[5] = test system: K562
[6] = test system: COLO 205
[7] = test system: SW-620
[8] = test system: HOP-62
[9] = test system: OVCAR-5
[10] = test system: SF-539
[11] = test system: BT-549
[12] = test system: EKVX
[13] = test system: MOLT-4
[14] = test system: HCC 2998
[15] = test system: SN12C
[16] = test system: M14
[17] = test system: ACHN
[18] = test system: CAKI-1
[19] = test system: MDA-N
[20] = test system: DU-145
[21] = test system: UO-31
[22] = test system: NCI-H522
[23] = test system: U-251
[24] = test system: SNB-75
[25] = test system: UACC-62
[26] = test system: MDA-MB-435
[27] = test system: OVCAR-8
[28] = test system: HT-29
[29] = test system: LOX IMVI
[30] = test system: Malme-3M
[31] = test system: SF-295
[32] = test system: NCI-H23
[33] = test system: SNB-19
[34] = test system: SR
[35] = test system: PC-3
[36] = test system: MDA-MB-231
[37] = test system: IGROV-1
[38] = test system: KM12
[39] = test system: TK-10
[40] = test system: SK-MEL-5
[41] = test system: RXF 393
[42] = test system: SK-OV-3
[43] = test system: T47D
[44] = test system: SK-MEL-2
[45] = test system: MCF7
[46] = test system: NCI-H460
[47] = test system: 786-0
[48] = test system: HOP-92
[49] = test system: SK-MEL-28
[50] = test system: HCT-116
[51] = test system: RPMI-8226
[52] = test system: NCI/ADR-RES
[53] = test system: A549
[54] = test system: OVCAR-4
[55] = test system: CCRF-CEM
[56] = test system: Hs-578T
[57] = test system: A498
[58] = test system: HL-60

Compound: COC(=O)[C@H](C)NC(=O)[C@H](CSC)N1C(=O)N[C@@H](C(C)C)C1=O
- GI50 [1]: > 100 µM (inactive)
- GI50 [2]: > 100 µM (inactive)
- GI50 [3]: > 100 µM
- GI50 [4]: > 100 µM (inactive)
- GI50 [5]: 85.5 µM (inactive)
- GI50 [6]: > 100 µM (inactive)
- GI50 [7]: > 100 µM (inactive)
- GI50 [8]: > 100 µM (inactive)
- GI50 [9]: > 100 µM (inactive)
- GI50 [10]: > 100 µM (inactive)
- GI50 [11]: > 100 µM (inactive)
- GI50 [12]: > 100 µM (inactive)
- GI50 [13]: 32.7 µM (inactive)
- GI50 [14]: > 100 µM (inactive)
- GI50 [15]: > 100 µM (inactive)
- GI50 [16]: > 100 µM (inactive)
- GI50 [17]: > 100 µM (inactive)
- GI50 [18]: > 100 µM (inactive)
- GI50 [19]: > 100 µM (inactive)
- GI50 [20]: > 100 µM (inactive)
- GI50 [21]: > 100 µM (inactive)
- GI50 [22]: > 100 µM (inactive)
- GI50 [23]: > 100 µM (inactive)
- GI50 [24]: 12.5 µM (inactive)
- GI50 [25]: > 100 µM (inactive)
- GI50 [26]: > 100 µM (inactive)
- GI50 [27]: > 100 µM (inactive)
- GI50 [28]: > 100 µM (inactive)
- GI50 [29]: > 100 µM (inactive)
- GI50 [30]: 49 µM (inactive)
- GI50 [31]: > 100 µM (inactive)
- GI50 [32]: > 100 µM (inactive)
- GI50 [33]: > 100 µM (inactive)
- GI50 [34]: > 100 µM (inactive)
- GI50 [35]: > 100 µM (inactive)
- GI50 [36]: > 100 µM (inactive)
- GI50 [37]: > 100 µM (inactive)
- GI50 [38]: > 100 µM (inactive)
- GI50 [39]: > 100 µM (inactive)
- GI50 [40]: > 100 µM (inactive)
- GI50 [41]: > 100 µM (inactive)
- GI50 [42]: > 100 µM (inactive)
- GI50 [43]: > 100 µM (inactive)
- GI50 [44]: > 100 µM (inactive)
- GI50 [45]: > 100 µM (inactive)
- GI50 [46]: 71.3 µM (inactive)
- GI50 [47]: > 100 µM (inactive)
- GI50 [48]: > 100 µM (inactive)
- GI50 [49]: > 100 µM (inactive)
- GI50 [50]: > 100 µM (inactive)
- GI50 [51]: > 100 µM (inactive)
- GI50 [52]: > 100 µM (inactive)
- GI50 [53]: > 100 µM (inactive)
- GI50 [54]: > 100 µM (inactive)
- GI50 [55]: 29.6 µM (inactive)

Compound: O=C(N/N=C\C(F)(F)F)c1ccncc1
- GI50 [1]: 22.3 µM (inactive)
- GI50 [2]: 49.3 µM (inactive)
- GI50 [3]: 26.9 µM
- GI50 [4]: 62.2 µM (inactive)
- GI50 [56]: 38.6 µM (inactive)
- GI50 [5]: 7.62 µM (inactive)
- GI50 [6]: 6.14 µM (inactive)
- GI50 [7]: 37.8 µM (inactive)
- GI50 [8]: 24.7 µM (inactive)
- GI50 [9]: > 100 µM (inactive)
- GI50 [11]: > 100 µM (inactive)
- GI50 [13]: 21.4 µM (inactive)
- GI50 [14]: 18.5 µM (inactive)
- GI50 [15]: 92.3 µM (inactive)
- GI50 [16]: 26 µM (inactive)
- GI50 [18]: 42.8 µM (inactive)
- GI50 [20]: 8.57 µM (inactive)
- GI50 [21]: 83.6 µM (inactive)
- GI50 [57]: 46.9 µM (inactive)
- GI50 [23]: 26.9 µM (inactive)
- GI50 [24]: 32.2 µM (inactive)
- GI50 [25]: 37.2 µM (inactive)
- GI50 [26]: 9.59 µM (inactive)
- GI50 [27]: 48.2 µM (inactive)
- GI50 [28]: 7.59 µM (inactive)
- GI50 [29]: > 100 µM (inactive)
- GI50 [30]: > 100 µM (inactive)
- GI50 [31]: 30.5 µM (inactive)
- GI50 [32]: 8.36 µM (inactive)
- GI50 [33]: 71.9 µM (inactive)
- GI50 [34]: 35.2 µM (inactive)
- GI50 [35]: 26.9 µM (inactive)
- GI50 [37]: 35.2 µM (inactive)
- GI50 [38]: 8.09 µM (inactive)
- GI50 [39]: 22.8 µM (inactive)
- GI50 [40]: 20.5 µM (inactive)
- GI50 [41]: 13.9 µM (inactive)
- GI50 [42]: 31.6 µM (inactive)
- GI50 [44]: > 100 µM (inactive)
- GI50 [58]: > 100 µM (inactive)
- GI50 [45]: 86.3 µM (inactive)
- GI50 [46]: 19.9 µM (inactive)
- GI50 [48]: > 100 µM (inactive)
- GI50 [49]: 80.7 µM (inactive)
- GI50 [51]: > 100 µM (inactive)
- GI50 [52]: > 100 µM (inactive)
- GI50 [54]: > 100 µM (inactive)
- GI50 [55]: 3.48 µM (inactive)
